# From patent US20240158391A1, “DERIVATIVES OF 4-(IMIDAZO[1,2-A]PYRIDIN-3-YL)-N-(PYRIDIN-3-YL) PYRIMIDIN-2- AMINE FOR TREATING PROLIFERATIVE DISEASES AND CONDITIONS” (AUCENTRA THERAPEUTICS PTY LTD, priority 2019, published 2024)
# How the values were obtained:
# FLT3-ITD = target: T1, FLT3-ITD (Homo sapiens, UniProt P36888); experiment: ADP Glo kinase assay, FLT3-ITD; assay type: biochemical; conditions: Km ATP 100 μM, read-out: Enzymatic inhibition, Ki, FLT3-ITD
# T1 sequence (P36888 1-993): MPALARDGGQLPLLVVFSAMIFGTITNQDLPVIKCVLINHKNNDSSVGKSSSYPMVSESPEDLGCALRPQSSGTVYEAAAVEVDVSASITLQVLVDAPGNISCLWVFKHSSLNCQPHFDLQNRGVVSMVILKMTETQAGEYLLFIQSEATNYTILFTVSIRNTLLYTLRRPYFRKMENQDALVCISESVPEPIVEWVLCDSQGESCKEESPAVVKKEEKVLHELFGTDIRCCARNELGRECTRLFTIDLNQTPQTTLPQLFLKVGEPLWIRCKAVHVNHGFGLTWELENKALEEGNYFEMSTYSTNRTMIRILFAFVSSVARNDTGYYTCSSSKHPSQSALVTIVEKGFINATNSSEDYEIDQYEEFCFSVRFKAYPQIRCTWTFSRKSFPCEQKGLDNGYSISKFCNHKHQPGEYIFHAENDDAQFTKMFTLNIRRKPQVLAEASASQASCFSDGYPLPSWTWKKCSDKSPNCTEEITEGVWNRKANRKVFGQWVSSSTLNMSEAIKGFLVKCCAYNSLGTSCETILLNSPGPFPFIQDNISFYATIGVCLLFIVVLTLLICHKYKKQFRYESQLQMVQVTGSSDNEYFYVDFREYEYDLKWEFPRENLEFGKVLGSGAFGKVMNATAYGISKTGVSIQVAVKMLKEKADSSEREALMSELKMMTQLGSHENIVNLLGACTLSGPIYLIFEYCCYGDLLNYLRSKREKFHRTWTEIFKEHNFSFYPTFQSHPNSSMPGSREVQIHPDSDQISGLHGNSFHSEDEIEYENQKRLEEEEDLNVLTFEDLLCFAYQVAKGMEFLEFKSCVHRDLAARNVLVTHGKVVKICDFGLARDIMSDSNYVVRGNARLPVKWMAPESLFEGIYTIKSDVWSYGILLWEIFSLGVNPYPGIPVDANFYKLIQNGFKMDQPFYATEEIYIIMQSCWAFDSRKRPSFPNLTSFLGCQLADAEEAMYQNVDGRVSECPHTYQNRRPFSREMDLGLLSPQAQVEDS
# Description: (§1) Test compounds are used in 1:3 serial dilutions for 10 concentrations (from 10-0.0005 μM) in 0.5% DMSO. […] The kinase reactions are run for optimised time period at room temperature and then the reaction is stopped by adding 5 μL of ADP Glo reagent.
# CDK9/CyclinT1 = CDK9/CyclinT1 (Homo sapiens, UniProt P50750); experiment: ADP Glo kinase assay, CDK9/CyclinT1; assay type: biochemical; conditions: for Ki: CDK9/CyclinT1, Km ATP, read-out: Enzymatic inhibition, Ki, CDK9 T1
# Chain of CDK9/CyclinT1 (P50750 whole entry, species assumed): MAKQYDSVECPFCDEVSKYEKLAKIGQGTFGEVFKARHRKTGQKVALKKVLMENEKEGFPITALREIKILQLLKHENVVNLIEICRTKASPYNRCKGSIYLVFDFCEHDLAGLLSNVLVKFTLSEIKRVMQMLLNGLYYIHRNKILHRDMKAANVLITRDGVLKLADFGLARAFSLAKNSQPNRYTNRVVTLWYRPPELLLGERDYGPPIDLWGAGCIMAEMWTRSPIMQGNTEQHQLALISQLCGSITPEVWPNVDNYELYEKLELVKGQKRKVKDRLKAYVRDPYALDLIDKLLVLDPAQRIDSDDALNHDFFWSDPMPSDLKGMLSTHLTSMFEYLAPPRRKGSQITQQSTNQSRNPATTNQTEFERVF
# Chain of CDK9/CyclinT1 (O60563 whole entry partner, species assumed): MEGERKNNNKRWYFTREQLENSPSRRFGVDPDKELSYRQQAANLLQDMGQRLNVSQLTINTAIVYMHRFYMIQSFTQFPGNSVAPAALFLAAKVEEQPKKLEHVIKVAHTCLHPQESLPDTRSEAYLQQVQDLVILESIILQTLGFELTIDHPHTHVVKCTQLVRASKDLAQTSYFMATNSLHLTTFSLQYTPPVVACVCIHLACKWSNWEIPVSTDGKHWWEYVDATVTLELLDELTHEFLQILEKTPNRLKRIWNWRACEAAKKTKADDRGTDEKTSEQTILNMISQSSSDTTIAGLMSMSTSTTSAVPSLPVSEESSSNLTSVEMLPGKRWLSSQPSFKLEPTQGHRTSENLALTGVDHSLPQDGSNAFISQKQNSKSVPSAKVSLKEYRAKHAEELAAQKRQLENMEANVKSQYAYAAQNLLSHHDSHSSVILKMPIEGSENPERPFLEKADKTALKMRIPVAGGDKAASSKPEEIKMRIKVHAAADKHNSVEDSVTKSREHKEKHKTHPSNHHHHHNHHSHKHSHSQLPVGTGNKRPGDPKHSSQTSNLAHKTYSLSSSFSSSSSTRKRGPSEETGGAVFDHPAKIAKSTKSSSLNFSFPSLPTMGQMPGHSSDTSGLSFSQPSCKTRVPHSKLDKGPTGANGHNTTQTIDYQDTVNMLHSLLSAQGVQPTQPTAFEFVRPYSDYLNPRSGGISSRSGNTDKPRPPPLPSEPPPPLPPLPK
# Description: as §1
# MV-4-11 = experiment: Proliferation assay (resazurin, leukemia cell lines), MV-4-11; assay type: cell-based; conditions: Homo sapiens, MV4-11, read-out: 72 h Growth inhibition GI50, MV-4-11 cells
# Excerpt: The following compounds were used as comparators.
# CDK2/CyclinA2 = CDK2/CyclinA2 (Homo sapiens, UniProt P24941); experiment: ADP Glo kinase assay, CDK2/CyclinA2; assay type: biochemical; conditions: for remaining activity at 1 µM: compound at 1 μM, read-out: Residual enzymatic activity (%) at 1 μM, CDK2 A; for Ki: Km ATP, read-out: Enzymatic inhibition, Ki, CDK2 A
# Description: as §1
# CDK4/CyclinD1 = CDK4/CyclinD1 (Homo sapiens, UniProt P11802); experiment: ADP Glo kinase assay, CDK4/CyclinD1; assay type: biochemical; conditions: for remaining activity at 1 µM: compound at 1 μM, read-out: Residual enzymatic activity (%) at 1 μM, CDK4 D1; for Ki: Km ATP, read-out: Enzymatic inhibition, Ki, CDK4 D1
# Chain of CDK4/CyclinD1 (P11802 whole entry, species assumed): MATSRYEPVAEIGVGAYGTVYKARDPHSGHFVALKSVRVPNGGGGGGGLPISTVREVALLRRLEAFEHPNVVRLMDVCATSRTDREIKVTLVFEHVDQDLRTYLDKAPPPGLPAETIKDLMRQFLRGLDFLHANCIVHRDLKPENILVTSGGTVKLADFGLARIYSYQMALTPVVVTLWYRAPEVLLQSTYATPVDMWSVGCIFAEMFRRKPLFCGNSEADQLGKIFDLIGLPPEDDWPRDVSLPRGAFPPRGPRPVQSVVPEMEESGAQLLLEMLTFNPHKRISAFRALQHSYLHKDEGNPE
# Chain of CDK4/CyclinD1 (P24385 whole entry partner, species assumed): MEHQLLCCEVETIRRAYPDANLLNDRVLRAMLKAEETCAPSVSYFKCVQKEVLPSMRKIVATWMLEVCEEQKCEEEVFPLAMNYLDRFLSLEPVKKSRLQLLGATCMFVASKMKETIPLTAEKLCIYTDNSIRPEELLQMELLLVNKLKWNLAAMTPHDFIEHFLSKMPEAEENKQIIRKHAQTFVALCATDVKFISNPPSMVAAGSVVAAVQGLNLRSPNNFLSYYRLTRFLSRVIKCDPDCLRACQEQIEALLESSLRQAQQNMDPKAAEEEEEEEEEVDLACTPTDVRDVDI
# Description: as §1
# CDK1/CyclinB = CDK1/CyclinB (Homo sapiens, UniProt P06493); experiment: ADP Glo kinase assay, CDK1/CyclinB; assay type: biochemical; conditions: for remaining activity at 1 µM: compound at 1 μM, read-out: Residual enzymatic activity (%) at 1 μM, CDK1 B; for Ki: Km ATP, read-out: Enzymatic inhibition, Ki, CDK1 B
# Chain of CDK1/CyclinB (P06493 whole entry, species assumed): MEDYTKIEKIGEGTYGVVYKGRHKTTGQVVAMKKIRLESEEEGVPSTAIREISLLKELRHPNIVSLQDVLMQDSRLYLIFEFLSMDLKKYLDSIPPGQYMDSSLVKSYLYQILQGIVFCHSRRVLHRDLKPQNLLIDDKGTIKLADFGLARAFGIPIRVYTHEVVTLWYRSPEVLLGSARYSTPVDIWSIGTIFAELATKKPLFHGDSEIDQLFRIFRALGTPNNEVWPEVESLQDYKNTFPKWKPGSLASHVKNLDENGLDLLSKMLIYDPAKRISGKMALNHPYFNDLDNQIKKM
# Chain of CDK1/CyclinB (P14635 whole entry partner, species assumed): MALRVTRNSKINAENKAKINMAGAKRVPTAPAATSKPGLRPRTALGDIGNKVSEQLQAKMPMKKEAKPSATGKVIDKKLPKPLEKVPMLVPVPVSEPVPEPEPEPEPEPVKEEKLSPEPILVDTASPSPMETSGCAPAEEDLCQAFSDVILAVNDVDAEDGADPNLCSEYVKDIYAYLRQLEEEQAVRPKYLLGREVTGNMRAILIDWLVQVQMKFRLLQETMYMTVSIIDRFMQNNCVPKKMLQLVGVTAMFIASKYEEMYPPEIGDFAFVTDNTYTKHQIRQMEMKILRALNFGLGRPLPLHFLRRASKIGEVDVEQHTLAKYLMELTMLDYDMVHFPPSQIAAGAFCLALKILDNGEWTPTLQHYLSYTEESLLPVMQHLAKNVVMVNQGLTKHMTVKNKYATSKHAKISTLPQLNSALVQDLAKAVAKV
# Description: as §1
# CDK6/CyclinD3 = CDK6/CyclinD3 (Homo sapiens, UniProt Q00534); experiment: ADP Glo kinase assay, CDK6/CyclinD3; assay type: biochemical; conditions: for remaining activity at 1 µM: compound at 1 μM, read-out: Residual enzymatic activity (%) at 1 μM, CDK6 D3; for Ki: Km ATP, read-out: Enzymatic inhibition, Ki, CDK6 D3
# Chain of CDK6/CyclinD3 (Q00534 whole entry, species assumed): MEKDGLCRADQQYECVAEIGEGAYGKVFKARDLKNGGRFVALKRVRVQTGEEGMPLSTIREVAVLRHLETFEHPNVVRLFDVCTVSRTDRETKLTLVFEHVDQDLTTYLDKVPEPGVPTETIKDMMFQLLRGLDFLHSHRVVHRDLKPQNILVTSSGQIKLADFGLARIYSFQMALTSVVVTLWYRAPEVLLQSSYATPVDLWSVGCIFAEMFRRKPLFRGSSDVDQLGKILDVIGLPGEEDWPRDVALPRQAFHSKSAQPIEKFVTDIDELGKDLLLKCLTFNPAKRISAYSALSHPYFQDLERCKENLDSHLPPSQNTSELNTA
# Chain of CDK6/CyclinD3 (P30281 whole entry partner, species assumed): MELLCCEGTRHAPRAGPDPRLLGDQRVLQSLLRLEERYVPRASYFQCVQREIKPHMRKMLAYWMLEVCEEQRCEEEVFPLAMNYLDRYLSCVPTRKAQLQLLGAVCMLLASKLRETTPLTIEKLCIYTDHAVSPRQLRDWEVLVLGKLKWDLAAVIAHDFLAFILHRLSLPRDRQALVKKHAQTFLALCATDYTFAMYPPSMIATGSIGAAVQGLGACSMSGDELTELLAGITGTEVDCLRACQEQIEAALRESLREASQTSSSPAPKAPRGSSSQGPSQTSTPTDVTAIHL
# Description: as §1
# CDK7/CyclinH/Mat1 = CDK7/CyclinH/Mat1 (Homo sapiens, UniProt P50613); experiment: ADP Glo kinase assay, CDK7/CyclinH/Mat1; assay type: biochemical; conditions: for remaining activity at 1 µM: compound at 1 μM, read-out: Residual enzymatic activity (%) at 1 μM, CDK7 H; for Ki: Km ATP, read-out: Enzymatic inhibition, Ki, CDK7 H
# Chain of CDK7/CyclinH/Mat1 (P50613 whole entry, species assumed): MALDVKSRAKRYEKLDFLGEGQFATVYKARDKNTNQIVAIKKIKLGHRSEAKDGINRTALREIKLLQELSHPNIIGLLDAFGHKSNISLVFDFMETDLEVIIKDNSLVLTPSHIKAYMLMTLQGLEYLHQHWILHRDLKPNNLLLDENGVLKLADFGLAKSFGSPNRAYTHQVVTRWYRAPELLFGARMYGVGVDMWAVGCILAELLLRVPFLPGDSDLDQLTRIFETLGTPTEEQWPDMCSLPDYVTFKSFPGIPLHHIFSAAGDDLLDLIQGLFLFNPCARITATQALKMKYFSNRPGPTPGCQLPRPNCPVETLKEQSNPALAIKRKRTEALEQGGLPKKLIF
# Chain of CDK7/CyclinH/Mat1 (P51946 whole entry partner, species assumed): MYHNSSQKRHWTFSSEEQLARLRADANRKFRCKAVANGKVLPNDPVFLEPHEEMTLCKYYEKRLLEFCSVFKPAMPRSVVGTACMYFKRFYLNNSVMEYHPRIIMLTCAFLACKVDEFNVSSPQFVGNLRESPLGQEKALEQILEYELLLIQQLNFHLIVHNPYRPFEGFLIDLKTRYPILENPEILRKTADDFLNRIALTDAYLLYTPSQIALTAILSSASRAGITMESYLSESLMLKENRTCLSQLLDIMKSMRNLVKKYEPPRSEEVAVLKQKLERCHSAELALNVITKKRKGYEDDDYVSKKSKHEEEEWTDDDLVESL
# Chain of CDK7/CyclinH/Mat1 (P51948 whole entry partner, species assumed): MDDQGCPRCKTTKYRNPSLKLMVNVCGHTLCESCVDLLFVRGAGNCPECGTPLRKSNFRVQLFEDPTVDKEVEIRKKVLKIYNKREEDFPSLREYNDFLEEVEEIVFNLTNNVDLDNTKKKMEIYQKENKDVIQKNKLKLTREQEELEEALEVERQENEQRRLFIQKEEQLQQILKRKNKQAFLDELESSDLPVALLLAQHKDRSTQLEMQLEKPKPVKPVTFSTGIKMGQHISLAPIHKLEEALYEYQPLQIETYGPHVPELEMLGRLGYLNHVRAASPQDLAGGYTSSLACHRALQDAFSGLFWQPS
# Description: as §1
Compound,Ki (FLT3-ITD),Ki (CDK9/CyclinT1),GI50 (MV-4-11),remaining activity at 1 µM (CDK2/CyclinA2),remaining activity at 1 µM (CDK4/CyclinD1),remaining activity at 1 µM (CDK1/CyclinB),remaining activity at 1 µM (CDK6/CyclinD3),remaining activity at 1 µM (CDK7/CyclinH/Mat1),Ki (CDK2/CyclinA2),Ki (CDK4/CyclinD1),Ki (CDK1/CyclinB),Ki (CDK7/CyclinH/Mat1),Ki (CDK6/CyclinD3),"inhibition of CDK9 (in words) (CDK9/CyclinT1; compared with comparator compounds A, B and C (N-(pyridin-2-yl)pyrimidin-2-amine moiety))"
"CCCNc1ccc(Nc2nccc(-c3cnc4ccc(-c5ccccc5)cn34)n2)cn1 [Compound 75, N^5-(4-(6-Phenylimidazo[1,2-a]pyridin-3-yl)pyrimidin-2-yl)-N^2-propylpyridine-2,5-diamine]",160 nM,368 nM,78 nM,100%,89%,89%,93%,80%,–,–,–,–,–,–
"Cc1ccc2ncc(-c3ccnc(Nc4ccc(N5CCN(C)CC5)nc4)n3)n2c1 [Compound 35, 4-(6-Methylimidazo[1,2-a]pyridin-3-yl)-N-(6-(4-methylpiperazin-1-yl)pyridin-3-yl)pyrimidin-2-amine]",16 nM,4 nM,4 nM,–,–,–,–,–,15 nM,34 nM,48 nM,84 nM,–,–
"CC(C)N1CCN(c2ccc(Nc3nccc(-c4cnc5ccc(-c6ccccc6)cn45)n3)cn2)CC1 [Compound 39, N-(6-(4-Isopropylpiperazin-1-yl)pyridin-3-yl)-4-(6-phenylimidazo[1,2-a]pyridin-3-yl)pyrimidin-2-amine]",12 nM,9 nM,88 nM,–,55%,46%,41%,–,563 nM,–,–,149 nM,–,–
"Fc1cnc(Nc2cccnc2)nc1-c1cnc2ccccn12 [Compound 4, 5-Fluoro-4-(imidazo[1,2-a]pyridin-3-yl)-N-(pyridin-3-yl)pyrimidin-2-amine]",224 nM,41 nM,57 nM,–,–,–,–,–,1 nM,74 nM,2 nM,2540 nM,2900 nM,–
"Brc1ccc2ncc(-c3ccnc(Nc4ccc(N5CCNCC5)nc4)n3)n2c1 [Compound 42, 4-(6-Bromoimidazo[1,2-a]pyridin-3-yl)-N-(6-(piperazin-1-yl)pyridin-3-yl)pyrimidin-2-amine]",9 nM,29 nM,22 nM,–,24%,–,–,27%,31 nM,–,78 nM,–,> 500 nM,–
"CS(=O)(=O)N1CCN(c2ccc(Nc3nccc(-c4cnc5ccc(Br)cn45)n3)cn2)CC1 [Compound 16, 4-(6-Bromoimidazo[1,2-a]pyridin-3-yl)-N-(6-(4-(methylsulfonyl)piperazin-1-yl)pyridin-3-yl)pyrimidin-2-amine]",7 nM,77 nM,10 nM,–,–,–,–,–,124 nM,718 nM,153 nM,–,2090 nM,–
"CN1CCN(c2ccc(Nc3nccc(-c4cnc5ccc(-c6cccnc6)cn45)n3)nc2)CC1 [Comparator compound C, N-(5-(4-methylpiperazin-1-yl)pyridin-2-yl)-4-(6-(pyridin-3-yl)imidazo[1,2-a]pyridin-3-yl)pyrimidin-2-amine, reference compound]",–,140 nM,–,94%,76%,67%,87%,75%,–,–,–,–,–,–
"CC(C)N1CCN(c2ccc(Nc3nccc(-c4cnc5ccc(Br)cn45)n3)cn2)CC1 [Compound 38, 4-(6-Bromoimidazo[1,2-a]pyridin-3-yl)-N-(6-(4-isopropylpiperazin-1-yl)pyridin-3-yl)pyrimidin-2-amine]",10 nM,10 nM,39 nM,–,–,–,–,–,44 nM,49 nM,145 nM,–,295 nM,–
"CN1CCN(c2ccc(Nc3nccc(-c4cnc5ccc(-c6cn[nH]c6)cn45)n3)cn2)CC1 [Compound 24, 4-(6-(1H-Pyrazol-4-yl)imidazo[1,2-a]pyridin-3-yl)-N-(6-(4-methylpiperazin-1-yl)pyridin-3-yl)pyrimidin-2-amine]",8 nM,4 nM,33 nM,–,21%,–,–,–,42 nM,–,29 nM,–,–,–
"CN1CCN(c2ccc(Nc3nccc(-c4cnc5ccc(-c6cnn(C)c6)cn45)n3)nc2)CC1 [Comparator compound B, 4-(6-(1-methyl-1H-pyrazol-4-yl)imidazo[1,2-a]pyridin-3-yl)-N-(5-(4-methylpiperazin-1-yl)pyridin-2-yl)pyrimidin-2-amine, reference compound]",–,> 500 nM,7 nM,99%,76%,98%,87%,70%,–,–,–,–,–,–
"CN1CCN(c2ccc(Nc3nccc(-c4cnc5ccc(-c6cnn(C)c6)cn45)n3)cn2)CC1 [Compound 9, 4-(6-(1-Methyl-1H-pyrazol-4-yl)imidazo[1,2-a]pyridin-3-yl)-N-(6-(4-methylpiperazin-1-yl)pyridin-3-yl)pyrimidin-2-amine]",15 nM,2 nM,10 nM,–,–,–,–,–,1030 nM,> 500 nM,645 nM,–,–,dramatically and surprisingly increased the potency of inhibition of CDK9
"CN1CCN(c2ccc(Nc3nccc(-c4cnc5ccc(-c6cnc(N)nc6)cn45)n3)cn2)CC1 [Compound 23, 4-(6-(2-Aminopyrimidin-5-yl)imidazo[1,2-a]pyridin-3-yl)-N-(6-(4-methylpiperazin-1-yl)pyridin-3-yl)pyrimidin-2-amine]",23 nM,20 nM,181 nM,26%,72%,67%,46%,–,–,–,–,–,–,–
"O=C(c1ccco1)N1CCN(c2ccc(Nc3nccc(-c4cnc5ccc(-c6ccccc6)cn45)n3)cn2)CC1 [Compound 63, Furan-2-yl(4-(5-((4-(6-phenylimidazo[1,2-a]pyridin-3-yl)pyrimidin-2-yl)amino)pyridin-2-yl)piperazin-1-yl)methanone]",82 nM,242 nM,25 nM,49%,–,26%,100%,93%,–,–,–,–,–,–
"CS(=O)(=O)N1CCN(c2ccc(Nc3nccc(-c4cnc5ccc(-c6cc7ccccc7o6)cn45)n3)cn2)CC1 [Compound 52, 4-(6-(Benzofuran-2-yl)imidazo[1,2-a]pyridin-3-yl)-N-(6-(4-(methylsulfonyl)piperazin-1-yl)pyridin-3-yl)pyrimidin-2-amine]",57 nM,> 500 nM,23 nM,97%,–,62%,100%,99%,–,–,–,–,–,–
"CCS(=O)(=O)N1CCN(c2ccc(Nc3nccc(-c4cnc5ccc(-c6ccc(F)nc6)cn45)n3)cn2)CC1 [Compound 61, N-(6-(4-(Ethylsulfonyl)piperazin-1-yl)pyridin-3-yl)-4-(6-(6-fluoropyridin-3-yl)imidazo[1,2-a]pyridin-3-yl)pyrimidin-2-amine]",149 nM,428 nM,20 nM,71%,–,38%,72%,57%,–,–,–,–,–,–
